Measurements: US8927533B2, “Thio derivatives bearing lactams as potent HDAC inhibitors and their uses as medicaments” (SIGMA-TAU Industrie Farmaceutiche Riunite S.p.A., priority 2011, dated 2015)

Tests used:
[1] = test system: eleven HDAC isolated human isoforms; experiment: HDAC profiling, whole isoform panel; format: biochemical
Method: (§1) Each compound was dissolved in DMSO, and progressively diluted solutions were used for testing. […] Upon its deacetylation, the fluorophore was released given rise to fluorescence emission which was detected by a fluorimeter, and the IC50 values of the compounds were determined by analyzing dose-response inhibition curves.

HDAC6 = biological target: T1, HDAC6 (Homo sapiens, UniProt Q9UBN7); experiment: HDAC enzymatic assay, HDAC6; format: biochemical
T1 sequence (Q9UBN7 1-1215): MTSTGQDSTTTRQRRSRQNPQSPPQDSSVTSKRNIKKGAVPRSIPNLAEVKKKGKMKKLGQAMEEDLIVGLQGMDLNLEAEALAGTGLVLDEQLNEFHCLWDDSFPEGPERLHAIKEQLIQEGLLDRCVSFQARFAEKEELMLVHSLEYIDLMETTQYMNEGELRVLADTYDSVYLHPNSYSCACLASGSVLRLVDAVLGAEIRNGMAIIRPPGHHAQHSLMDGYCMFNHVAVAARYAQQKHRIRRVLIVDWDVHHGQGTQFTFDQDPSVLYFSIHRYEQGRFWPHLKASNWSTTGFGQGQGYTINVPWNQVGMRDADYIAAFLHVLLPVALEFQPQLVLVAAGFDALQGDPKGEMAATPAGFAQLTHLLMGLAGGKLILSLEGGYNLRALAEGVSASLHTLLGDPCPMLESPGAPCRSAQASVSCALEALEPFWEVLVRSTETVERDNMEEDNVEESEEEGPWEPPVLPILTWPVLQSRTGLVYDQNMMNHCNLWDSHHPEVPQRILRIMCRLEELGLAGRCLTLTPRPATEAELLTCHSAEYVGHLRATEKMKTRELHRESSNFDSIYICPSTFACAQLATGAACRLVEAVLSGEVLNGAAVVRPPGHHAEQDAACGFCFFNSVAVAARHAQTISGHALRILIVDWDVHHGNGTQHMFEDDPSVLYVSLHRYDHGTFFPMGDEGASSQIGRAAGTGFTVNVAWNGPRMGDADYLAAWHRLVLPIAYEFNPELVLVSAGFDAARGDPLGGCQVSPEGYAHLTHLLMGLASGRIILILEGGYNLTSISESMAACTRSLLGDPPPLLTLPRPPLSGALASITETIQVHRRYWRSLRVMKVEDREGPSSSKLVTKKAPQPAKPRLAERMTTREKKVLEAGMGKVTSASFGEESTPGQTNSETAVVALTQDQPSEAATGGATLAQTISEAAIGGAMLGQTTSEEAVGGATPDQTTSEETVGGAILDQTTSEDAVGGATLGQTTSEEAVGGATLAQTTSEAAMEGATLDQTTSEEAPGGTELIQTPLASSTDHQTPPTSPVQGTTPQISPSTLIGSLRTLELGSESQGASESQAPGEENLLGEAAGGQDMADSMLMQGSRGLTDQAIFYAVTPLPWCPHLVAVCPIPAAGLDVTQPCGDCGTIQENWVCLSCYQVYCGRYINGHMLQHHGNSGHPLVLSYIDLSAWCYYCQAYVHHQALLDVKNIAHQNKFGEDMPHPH
Method: as §1

[2] = test system: MV4-11 acute monocytic leukemia cells; experiment: Cytotoxicity extended panel, MV4-11; format: cell-based; settings: Homo sapiens, suspension cells, 72 h
Method: (§2) Cells were seeded in 96-well tissue culture plates at approximately 10% confluence. They were allowed to attach and recover for at least 24 h. Compounds of the present invention were then added to each well at various concentrations in order to define cell survival inhibition IC50. The plates were incubated for 72 h at 37° C., after which time they were washed 3 times by removal of the supernatant. 200 μl of PBS and 50 μl of cold 80% TCA were added and the plates were incubated on ice for at least 1 h. TCA was removed and the plates were washed 3 times by immersion in distilled water. They were then dried on paper at 40° C. for 5 min. 200 μl of 0.4% sulphorodamine B in 1% acetic acid were added. The plates were incubated at room temperature for further 30 min. Sulphorodamine B was removed, and the plates were washed 3 times by immersion in 1% acetic acid and were dried on paper at 40° C. for 5 min. Then 200 μl Tris 10 mM were added. The plates were kept under magnetic stirring for 20 min. Cell survival was determined by means of optical density by a Multiskan spectrofluorimeter at 540 nm. The amount of cells killed was calculated as the percentage decrease in sulphorodamine B binding compared to control cultures. The IC50 values (reported in Table 5) were calculated with the “ALLFIT” program. […]

[3] = test system: HSC3 head and neck tumour cells; experiment: Cytotoxicity extended panel, HSC3; format: cell-based; settings: Homo sapiens, HSC-3, cell survival, 72 h, sulphorodamine B
Method: (§3) Cells were seeded in 96-well tissue culture plates at approximately 10% confluence. They were allowed to attach and recover for at least 24 h. Compounds of the present invention were then added to each well at various concentrations in order to define cell survival inhibition IC50. The plates were incubated for 72 h at 37° C., after which time they were washed 3 times by removal of the supernatant. 200 μl of PBS and 50 μl of cold 80% TCA were added and the plates were incubated on ice for at least 1 h. TCA was removed and the plates were washed 3 times by immersion in distilled water. They were then dried on paper at 40° C. for 5 min. 200 μl of 0.4% sulphorodamine B in 1% acetic acid were added. The plates were incubated at room temperature for further 30 min. Sulphorodamine B was removed, and the plates were washed 3 times by immersion in 1% acetic acid and were dried on paper at 40° C. for 5 min. Then 200 μl Tris 10 mM were added. The plates were kept under magnetic stirring for 20 min. Cell survival was determined by means of optical density by a Multiskan spectrofluorimeter at 540 nm. The amount of cells killed was calculated as the percentage decrease in sulphorodamine B binding compared to control cultures. The IC50 values (reported in Table 5) were calculated with the “ALLFIT” program.

HUT78 T-Lymphoma cells = experiment: Cytotoxicity extended panel, HUT78; format: cell-based; settings: Homo sapiens, suspension cells, 72 h
Method: as §2

[4] = test system: α-tubulin acetylation in NCI-H460 cells; experiment: Tubulin acetylation, Western Blot; settings: cytoplasmic extracts
Method: (§4) The experiments were conducted using ECL Plus Western blotting detection reagents (from Amersham Biosciences) and the intensity of the bands were analyzed by using a computed phosphoimage analyzer (PhosphoImager; Molecular Dynamics, Sunnyvale, Calif., U.S.A.).

[5] = test system: HCT116 colon cancer cells; experiment: Antitumour activity, HCT116 xenograft (Example 48); format: in vivo, CD1 nude mice; settings: 50 mg/10 ml/kg i.p., qd×5/w×3w
Method: (§5) The tested derivatives were administered as a suspension in PBS/DMSO/Cremophor EL (Sigma): 85/10/5 (volume percentage). The antitumour activity was determined by measuring tumour diameters with a Vernier calliper according to the Formula TV=d^2×D/2
(§6) where d and D are the shortest and longest diameters, respectively.
(§7) When tumours reached a volume of about 1000 mm^3, mice were sacrificed by cervical dislocation. The efficacy of the drug was assessed as the tumour volume inhibition according to the Formula reported underneath:
(§8) Body weight recording was carried out to evaluate body weight loss as calculated in the equation underneath:
(§9) Wherein BW day x corresponds to the mean weight at day x of the experiment meanwhile BW day 1 corresponds to the mean weight at the first day of the experiment.

[6] = test system: MDA-MB436 breast tumour cells; experiment: Cytotoxicity extended panel, MDA-MB436; format: cell-based; settings: Homo sapiens, MDA-MB-436, cell survival, 72 h, sulphorodamine B
Method: as §3

NCI-H460 NSCLC = experiment: Antitumour activity, NCI-H460 xenograft (Example 48); settings: 50 mg/10 ml/kg i.p., qd×5/w×3w
Method: as §5, §6, §7, §8, §9

[7] = test system: K562 chronic myeloid leukemia cells; experiment: Cytotoxicity extended panel, K562; format: cell-based; settings: Homo sapiens, suspension cells, 72 h
Method: as §2

U937 leukemia cells = experiment: Cytotoxicity extended panel, U937; format: cell-based; settings: Homo sapiens, U-937, suspension cells, 72 h
Method: as §2

[8] = test system: NCI-H460 non-small cell lung carcinoma cells; experiment: Cytotoxicity, sulphorodamine B, H460; settings: Homo sapiens, NCI-H460, read-out: H460 cell line IC50 (μM)
Method: (§10) The plates were incubated for 24 h at 37° C., after which they were washed 3 times by removal of the supernatant and addition of PBS. The plates were then incubated for further 48 h at 37° C. 200 μl PBS and 50 μl of cold 80% TCA were added and the plates were incubated on ice for at least 1 h. TCA was removed and the plates were washed 3 times by immersion in distilled-water. They were then dried on paper at 40° C. for 5 min. 200 μl of 0.4% sulphorodamine B in 1% acetic acid were added. The plates were incubated at room temperature for further 30 min. Sulphorodamine B was removed, and the plates were washed 3 times by immersion in 1% acetic acid and were dried on paper and at 40° C. for 5 min. Then 200 μl Tris 10 mM were added. The plates were kept under magnetic stirring for 20 min. Cell survival was determined by means of optical density by a Multiskan spectrofluorimeter at 540 nm. The amount of cells killed was calculated as the percentage decrease in sulphorodamine B binding compared to control cultures.

[9] = test system: SKOV-3 ovarian tumour cells; experiment: Cytotoxicity extended panel, SKOV-3; format: cell-based; settings: Homo sapiens, SK-OV-3, cell survival, 72 h, sulphorodamine B
Method: as §3

[10] = test system: histone H4 acetylation in NCI-H460 cells; experiment: Histone H4 acetylation, Western Blot
Method: as §4

[11] = test system: H929 multiple myeloma cells; experiment: Antitumour activity, H929 xenograft (Example 48); format: in vivo, CD1 nude mice; settings: 50 mg/10 ml/kg i.p., qd×5/w×3w
Method: as §5, §6, §7, §8, §9

[12] = test system: MCF-7 breast tumour cells; experiment: Cytotoxicity extended panel, MCF-7; format: cell-based; settings: Homo sapiens, MCF7, cell survival, 72 h, sulphorodamine B
Method: as §3

[13] = test system: MDA-MB231 breast tumour cells; experiment: Cytotoxicity extended panel, MDA-MB231; format: cell-based; settings: Homo sapiens, MDA-MB-231, cell survival, 72 h, sulphorodamine B
Method: as §3

[14] = test system: HCT116 colon cancer cells; experiment: Cytotoxicity, sulphorodamine B, HCT116; settings: Homo sapiens, HCT-116, read-out: HCT116 cell line IC50 (μM)
Method: as §10

[15] = test system: A2780 ovarian tumour cells; experiment: Cytotoxicity extended panel, A2780; format: cell-based; settings: Homo sapiens, cell survival, 72 h, sulphorodamine B
Method: as §3

In the case of `CC(C)(C)OC(=O)N[C@@H](CCCCCS)C(=O)NC1CCCC1` [((S)-1-cyclopentylcarbamoyl-6-mercapto-hexyl)-carbamic acid tert-butyl ester, reference compound], the “HDAC isoform selectivity profile” value [1] is reported as “confirmed its HDAC6 selectivity profile” and the “activity on HDAC6 compared with the described compounds” value (HDAC6) is reported as “much lower activity on HDAC6 than most of the herein described compounds”.
For `CC(=O)SCCCCC[C@H](NC(=O)[C@@H]1CCCC(=O)N1)C(=O)Nc1ccccc1` [Example 14, Thioacetic acid S—{(S)-6-[((S)-6-oxo-piperidine-2-carbonyl)-amino]-6-phenylcarbamoyl-hexyl}ester], the IC50 [2] was 0.19 µM, the IC50 [3] was 0.77 µM and the IC50 (HUT78 T-Lymphoma cells) was 0.48 µM. For the same molecule, the “hyper-acetylation of cytoplasmatic α-tubulin” value [4] was “comparable to that observed with the reference compound SAHA”, the BWL % [5] was 3% and the TVI % [5] was 44%. The IC50 [6] was 0.18 µM, the BWL % (NCI-H460 NSCLC) was 2% and the TVI % (NCI-H460 NSCLC) was 36%. For the same molecule, the IC50 [7] was 0.19 µM, the IC50 (U937 leukemia cells) was 0.049 µM and the IC50 [8] was < 0.5 µM. For the same molecule, the IC50 [9] was 0.38 µM, the EC50 ([10]; Homo sapiens, NCI-H460, read-out: EC50 μM H4 acetylation) was 0.1 µM and the “concentration inducing H4 hyper-acetylation” value ([10]; NCI-H460 cells, Western Blot, 'as low as') was 100 nM. For the same molecule, the BWL % [11] was 11%, the TVI % [11] was 30% and the IC50 [12] was 0.19 µM. For the same molecule, the IC50 [13] was 0.23 µM, the IC50 [14] was < 0.5 µM and the IC50 [15] was 0.062 µM.
